Measured values reported in ChEMBL document CHEMBL2202954, “The effect of PLC-γ2 inhibitors on the growth of human tumour cells” (2012).

Legend:
Assay type in all cases: functional
SN12C = assay: Cytotoxicity against human SN12C cells assessed as cellular growth at 10 uM by SRB assay
SF-295 = assay: Cytotoxicity against human SF295 cells assessed as cellular growth at 10 uM by SRB assay
COLO 205 = assay: Cytotoxicity against human COLO205 cells assessed as cellular growth at 10 uM by SRB assay
M14 = assay: Cytotoxicity against human M14 cells assessed as cellular growth at 10 uM by SRB assay
HOP-92 = assay: Cytotoxicity against human HOP92 cells assessed as cellular growth at 10 uM by SRB assay
BT-549 = assay: Cytotoxicity against human BT549 cells assessed as cellular growth at 10 uM by SRB assay
SW-620 = assay: Cytotoxicity against human SW620 cells assessed as cellular growth at 10 uM by SRB assay
OVCAR-5 = assay: Cytotoxicity against human OVCAR5 cells assessed as cellular growth at 10 uM by SRB assay
IGROV-1 = assay: Cytotoxicity against human IGROV1 cells assessed as cellular growth at 10 uM by SRB assay
CCRF-CEM = assay: Cytotoxicity against human CCRF-CEM cells assessed as cellular growth at 10 uM by SRB assay
HL-60(TB) = assay: Cytotoxicity against human HL-60(TB) cells assessed as cellular growth at 10 uM by SRB assay
K562 = assay: Cytotoxicity against human K562 cells assessed as cellular growth at 10 uM by SRB assay
DU-145 = assay: Cytotoxicity against human DU145 cells assessed as cellular growth at 10 uM by SRB assay
MDA-MB-435 = assay: Cytotoxicity against human MDA-MB-435 cells assessed as cellular growth at 10 uM by SRB assay
SR = assay: Cytotoxicity against human SR cells assessed as cellular growth at 10 uM by SRB assay
NCI-H460 = assay: Cytotoxicity against human NCI-H460 cells assessed as cellular growth at 10 uM by SRB assay
OVCAR-4 = assay: Cytotoxicity against human OVCAR4 cells assessed as cellular growth at 10 uM by SRB assay
A549 = assay: Cytotoxicity against human A549 cells assessed as cellular growth at 10 uM by SRB assay
A498 = assay: Cytotoxicity against human A498 cells assessed as cellular growth at 10 uM by SRB assay
Malme-3M = assay: Cytotoxicity against human MALME-3M cells assessed as cellular growth at 10 uM by SRB assay

SMILES | Activity (SN12C) [%] | Activity (SF-295) [%] | Activity (COLO 205) [%] | Activity (M14) [%] | Activity (HOP-92) [%] | Activity (BT-549) [%] | Activity (SW-620) [%] | Activity (OVCAR-5) [%] | Activity (IGROV-1) [%] | Activity (CCRF-CEM) [%] | Activity (HL-60(TB)) [%] | Activity (K562) [%] | Activity (DU-145) [%] | Activity (MDA-MB-435) [%] | Activity (SR) [%] | Activity (NCI-H460) [%] | Activity (OVCAR-4) [%] | Activity (A549) [%] | Activity (A498) [%] | Activity (Malme-3M) [%]
O=C(Nc1nc2ccccc2s1)c1ccc(F)cc1 | 108.22 | 103.39 | 117.74 | 109.51 | 78.65 | 109.49 | 112.1 | 100.92 | 88.87 | 100.74 | 111.31 | 89.96 | 108.3 | 100.56 | 98.39 | 69.18 | 85.42 | 98.36 | 89.82 | 96.2
CC1(C)CC(=O)c2cc3c(N)c(C(=O)NCc4ccccc4)sc3nc2C1 | 98.59 | 100.81 | 128.9 | 98.42 | 60.17 | 110.98 | 111.03 | 108.53 | 107.02 | 99.55 | 120.86 | 117.84 | 113.73 | 91.3 | 116.5 | 101.02 | 78.52 | 99.09 | 89.05 | 104.51
Nc1c(C(=O)NCc2ccccc2)sc2nc3c(cc12)C(=O)CCC3 | 101.11 |  | 133.04 | 113.61 | 79.65 | 120.38 | 105.63 | 113.08 | 124.94 | 102.77 | 119.79 | 111.11 | 127.66 |  | 116.81 | 101.03 | 117.19 | 103.07 | 100.49 | 139.75
Cc1c(OCC(=O)c2ccccc2)ccc2c1oc(=O)c1ccccc12 | 101.41 | 99.54 | 117.2 | 118.87 | 103.71 | 120.42 | 95.18 | 108.12 | 115.73 | 95.27 | 111.36 | 100.66 | 106.9 | 98.4 |  | 100.87 | 106.31 | 93.47 | 91.47 | 120.27
O=C(NCCc1ccccc1)c1[nH]c2ccccc2c1Cl | 97.03 | 82.28 | 99.13 | 106.45 | 72.64 | 91.75 | 92.61 | 104.54 | 82.65 | 86.13 | 90.02 | 74.92 | 91.9 | 96.07 |  | 89.75 | 82.6 | 96.24 | 81.46 | 109.22
O=C(NCCc1ccc(Cl)cc1)c1[nH]c2ccccc2c1Cl | 97.33 | 98.05 | 97.59 | 98.43 | 81.73 | 111.29 | 92.87 | 117.9 | 93.76 | 108.31 | 94.84 | 67.44 | 101.11 | 98.17 |  | 93.16 | 89.13 | 92.96 | 77.04 | 107.52
Cc1ccc(Cl)cc1NC(=O)c1sc2nc3c(cc2c1N)C(=O)CCC3 | 80.57 | 4.01 | 39.71 | 62.9 | 56.86 | 93.5 | 36.54 | 94.25 | 75.72 | 49.18 | 82.22 | 33.61 | 77.37 | -3.04 | 68.85 | 28.15 | 90.15 | 53.86 | 51.16 | 81.13
COc1ccc(NC(=O)c2sc3nc4c(cc3c2N)C(=O)CCC4)cc1 | 116.88 | 80.98 | 122.21 | 103.89 | 78.47 | 103.09 | 111.85 | 99.71 | 114.88 | 88.17 | 109.37 | 116.6 | 102.19 | 97.12 | 113.2 | 96.07 | 107.69 | 97.44 | 39.38 | 102.12
N#Cc1ccc(NC(=O)c2sc3nc4c(cc3c2N)C(=O)CCC4)cc1 | 98.35 | 82.4 | 108.98 | 105.98 | 95.57 | 108.43 | 98.14 | 89.16 | 113.1 | 99.79 | 81.02 | 108.42 | 94.94 | 97.44 |  | 85.91 | 105.84 | 92.54 | 79.55 | 89.34
O=C(NCCc1ccccc1)c1cc2cccc([N+](=O)[O-])c2[nH]1 | 94.11 | 92.52 | 90.85 | 100.89 | 84.88 | 99.6 | 108.15 | 116.02 | 101.06 | 86.81 | 114.53 | 82.43 | 112.66 | 109.58 | 91.6 | 101.23 | 75.65 | 94.33 | 117.41 | 
